{"source": "patent US20120180807A1", "about": "“Method for Chemically Modifying the Internal Region of a Hair Shaft” (priority 2011, published 2012)", "assay": "Water solubility / dissolving of monomer and polymer (other in-vitro-experiments)", "type": "physicochemical", "from_the_text": "However, dissolving polymer, once it had been dried, takes considerably longer (some hours) than dissolving dry monomer (some seconds). […] All the 20 hair fibres of each sample without H2O2 pre-treatment lost their radioactivity of the cuticle area by washing, whereas all the other samples kept it."}
{"compound": "C=CC(=O)OCCCS(=O)(=O)O", "note": "[3-SPA, 3-sulfopropylacrylate]", "values": [{"measurement": "water solubility", "result": "water soluble"}, {"measurement": "time for dissolving in water", "setting": "dry / once dried material", "result": "some seconds"}]}
